According to patent EP4578939A1, “MYC[…]. BASED ON VARIOUS CARBON-NITROGEN METABOLIC […], METHOD FOR ISOLATING SAME, AND USE THEREOF” (Peng, Guanghao, priority 2022, dated 2024):
Read-outs that look alike come from different tables or passages of the source.

Test system: strain YT
Experiment: inhibition of nitrification inhibitors on nitrification activity and growth
Assay type: cell-based, Mycobacterium sp.
Settings: for inhibition at 5000 µM: Mycobacterium; for effect on growth of strain YT: pure culture with two nitrogen sources; for effect on nitrification activity of strain YT: pure culture
Experimental: The nitrogen contents of the two nitrogen sources were equal in a modified Stephenson medium with (NH4)2SO4 as a nitrogen source (NH4)2SO4 content was 2.0g/L) and a modified Stephenson medium with L-arginine hydrochloride (C6H14N4O2•HCl) as a nitrogen source (C6H14N4O2•HCl content was 1.6 g/L).
When sodium pyruvate was added as a carbon source in the design of a culture medium, 1.0M sodium pyruvate solution (the concentration was calculated in terms of pyruvic acid) was prepared firstly, the pH was adjusted to the range of 7.0-7.2, and the solution was sterilized separately for later use. Before use, 1ml of 1.0M sodium pyruvate solution was added to about 100ml of modified Stevenson culture medium with (NH4)2SO4 as a nitrogen source or L-arginine hydrochloride (C6H14N4O2•HCl) as a nitrogen source, and the pyruvic acid concentration of the culture system was designed to be 0.01M.
Four kinds of nitrification inhibitors 4-amino-1,2,4-triazole (ATC), dicyandiamide (DCD, C2H4N4), aminoguanidine hydrochloride (CH6N4•HCl), and guanylthiourea (C2H6N4S) were selected. The four nitrification inhibitors were prepared with a concentration of 500mM, respectively, after the solutions were filtered and sterilized, 1ml of the four nitrification inhibitors with a concentration of 500mM was added into the two medium with different nitrogen sources, such that the corresponding concentration of each of the nitrification inhibitors in the systems was 5 mM.
Two mediums with different nitrogen sources were respectively subjected to 5 treatments, namely without addition of an inhibitor, adding ATC, adding DCD, adding aminoguanidine hydrochloride, and adding guanylthiourea as shown in the table below; the YT system without addition of an inhibitor and the system without inoculation of strain YT and only addition of an inhibitor were respectively used as a control group; 1ml of PBS-YT bacterial liquid was inoculated, and 1ml of sterile water was used as a substitute when the inoculation of a bacterial strain was not performed. The total volume of each culture system was equal, it was about 100 ml.
1.5 Culture conditions: the culture was performed in a shaking table with a rotational speed of 180rpm at 28°C.
1.6 Measurement and calculation of indicator: the growth OD600 and pH value of thallus in the culture solution were measured every week, the contents of NH4^+-N, NO2^--N and NOx^--N were measured, the inhibition effect of the nitric oxide synthase (nitrification) activity of different culture systems were calculated and compared.
Nitric oxide synthase (nitrification) inhibition rate (%) = (NO2^--NYT concentration - NO2^--Nculture system added with an inhibitor concentration) ×100/ NO2^--NYT concentration

[1] = 168 h, strain YT, L-arginine hydrochloride, inhibitor 5 mM, Culture 7 days (Table 13e), read-out: Nitric oxide synthase (nitrification) activity inhibition rate (%)
[2] = 336 h, strain YT, L-arginine hydrochloride, inhibitor 5 mM, Culture 14 days (Table 13e), read-out: Nitric oxide synthase (nitrification) activity inhibition rate (%)
[3] = 480 h, strain YT, L-arginine hydrochloride, inhibitor 5 mM, Culture 20 days, read-out: Nitric oxide synthase (nitrification) activity inhibition rate (%)
[4] = strain YT, L-arginine hydrochloride, inhibitor 5 mM, Culture 31 days, read-out: Nitric oxide synthase (nitrification) activity inhibition rate (%)
[5] = strain YT, L-arginine hydrochloride as nitrogen source, inhibitor 5 mM, 7 days (Table 13c)
[6] = strain YT, L-arginine hydrochloride as nitrogen source, inhibitor 5 mM, 14 days (Table 13c)
[7] = strain YT, L-arginine hydrochloride as nitrogen source, inhibitor 5 mM, 20 days
[8] = strain YT, L-arginine hydrochloride as nitrogen source, inhibitor 5 mM, 31 days
[9] = strain YT, ammonium sulfate as nitrogen source, inhibitor 5 mM, 7 days (Table 13c)
[10] = strain YT, ammonium sulfate as nitrogen source, inhibitor 5 mM, 14 days (Table 13c)
[11] = strain YT, ammonium sulfate as nitrogen source, inhibitor 5 mM, 20 days
[12] = strain YT, ammonium sulfate as nitrogen source, inhibitor 5 mM, 31 days

Row | SMILES | inhibition at 5000 µM [1] [%] | inhibition at 5000 µM [2] [%] | inhibition at 5000 µM [3] [%] | inhibition at 5000 µM [4] [%] | effect on growth of strain YT (inhibitor 5 mM) | effect on nitrification activity of strain YT (inhibitor 5 mM) | NH4^+-N [5] | NO2^--N [5] | OD600 [5] | NH4^+-N [6] | NO2^--N [6] | OD600 [6] | NH4^+-N [7] | NO2^--N [7] | OD600 [7] | NH4^+-N [8] | NO2^--N [8] | OD600 [8] | NH4^+-N [9] | NO2^--N [9] | other results
1 | N#CN=C(N)N [DCD, dicyandiamide] | 0 | 7.14 | 0.72 | 0 | did not inhibit the growth | did not impose an inhibitory effect | 18 | 0.50 | 0.397 | 121 | 32.5 | 0.438 | 191 | 152.77 | 0.415 | 173 | 153.87 | 0.378 | 421 | 1.00 | inhibition at 5000 µM (168 h, strain YT, Ammonium sulfate, inhibitor 5 mM, Culture 7 days (Table 13e), read-out: Nitric oxide synthase (nitrification) activity inhibition rate (%)): 0%; inhibition at 5000 µM (336 h, strain YT, Ammonium sulfate, inhibitor 5 mM, Culture 14 days (Table 13e), read-out: Nitric oxide synthase (nitrification) activity inhibition rate (%)): 0%; inhibition at 5000 µM (480 h, strain YT, Ammonium sulfate, inhibitor 5 mM, Culture 20 days, read-out: Nitric oxide synthase (nitrification) activity inhibition rate (%)): 32.4%; inhibition at 5000 µM (strain YT, Ammonium sulfate, inhibitor 5 mM, Culture 31 days, read-out: Nitric oxide synthase (nitrification) activity inhibition rate (%)): 8.62%; OD600 [9]: 0.207; NH4^+-N [10]: 408; NO2^--N [10]: 2.50; OD600 [10]: 0.121; NH4^+-N [11]: 355; NO2^--N [11]: 3.20; OD600 [11]: 0.127; NH4^+-N [12]: 382; NO2^--N [12]: 5.11; OD600 [12]: 0.128
2 | Nn1cnnc1 [ATC, 4-amino-1,2,4-triazole] | 100 | 98.6 | 99.8 | 99.8 | did not inhibit the growth | always exhibited the inhibiting effect | 15 | 0 | 0.403 | 89 | 0.5 | 0.394 | 130 | 0.37 | 0.329 | 111 | 0.33 | 0.252 | 419 | 0 | inhibition at 5000 µM (168 h, read-out: Nitric oxide synthase (nitrification) activity inhibition rate (%), strain YT, Ammonium sulfate, inhibitor 5 mM, Culture 7 days (Table 13e)): 100%; inhibition at 5000 µM (336 h, read-out: Nitric oxide synthase (nitrification) activity inhibition rate (%), strain YT, Ammonium sulfate, inhibitor 5 mM, Culture 14 days (Table 13e)): 80%; inhibition at 5000 µM (480 h, read-out: Nitric oxide synthase (nitrification) activity inhibition rate (%), strain YT, Ammonium sulfate, inhibitor 5 mM, Culture 20 days): 89.4%; inhibition at 5000 µM (read-out: Nitric oxide synthase (nitrification) activity inhibition rate (%), strain YT, Ammonium sulfate, inhibitor 5 mM, Culture 31 days): 25.4%; OD600 [9]: 0.214; NH4^+-N [10]: 410; NO2^--N [10]: 0.50; OD600 [10]: 0.127; NH4^+-N [11]: 366; NO2^--N [11]: 0.5; OD600 [11]: 0.133; NH4^+-N [12]: 382; NO2^--N [12]: 1.17; OD600 [12]: 0.146
